Counter-ions that a name gives are not always drawn. Like-named read-outs stand apart in the source and are kept apart here.
Legend:
[1] = test system: pS6K1 (p-p70 S6 Kinase (Thr389)) in MCF-7 cells; assay: AlphaLISA Ultra pS6K1 assay; format: cell-based; conditions: 2 hours compound incubation
Method in brief: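 MCF-7 cells seeded 20–24 h, medium refreshed 2 h, then treated 2 h with compound (0.5% DMSO final). Lysates probed for Thr389-phosphorylated p70 S6K by AlphaLISA Ultra, 2 h acceptor then 2 h donor bead incubation, read on a multimode reader.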

[2] = test system: pAKT (p-Akt 1/2/3 (Ser473)) in MCF-7 cells; assay: AlphaLISA Ultra pAKT assay; format: cell-based
Method in brief: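 AlphaLISA read-out (2 h acceptor-bead, then 2 h donor-bead incubation) on thawed lysates of MCF-7 cells exposed to compounds for 2 h in 0.5% DMSO. Cells had been plated 20-24 h and given fresh medium 2 h before dosing.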

[3] = Homo sapiens, MCF7, 2 hours compound incubation

SMILES | IC50 ([1]; Homo sapiens, MCF7, 2 h) [nM] | IC50 [2, 3] [nM] | IC50 ([1]; read-out: pS6K1 in MCF7: IC50) [nM] | IC50 ([2]; 2 hours compound incubation, read-out: pAKT in MCF7: IC50) [nM]
Cc1cc(C)c(C(=O)N2CCN(c3ccc(F)cn3)[C@H](CO)C2)c(C)c1NC1CCN(c2ccc(F)cn2)CC1 [I-146, [(3S)-4-(5-Fluoro-2-pyridyl)-3-(hydroxymethyl)piperazin-1-yl]-[3-[[1-(5-fluoro-2-pyridyl)-4-piperidyl]amino]-2,4,6-trimethyl-phenyl]methanone] | 10 to 1000 | 10 to 1000 |  | 
Cc1cc(C)c(C(=O)N2CCN(c3ccc(F)cn3)[C@H](CO)C2)c(C)c1NC1CCN(c2ncccn2)CC1 [I-151, [(2S)-1-(5-Fluoropyridin-2-yl)-4-(2,4,6-trimethyl-3-{[1-(pyrimidin-2-yl)piperidin-4-yl]amino}benzoyl)piperazin-2-yl]methanol] | 10 to 1000 | > 10000 |  | 
Cc1nc(C)c(C(=O)N2CCN(c3ccccc3)[C@H](CO)C2)c(C)c1NC1CCN(c2c(F)cccc2C#N)CC1 [I-153, 3-fluoro-2-[4-({5-[(3S)-3-(hydroxy-methyl)-4-phenyl-piperazine-1-carbonyl]-2,4,6-trimethyl-pyridin-3-yl}amino)piperidin-1-yl] benzonitrile] | 10 to 1000 | > 10000 |  | 
Cc1nc(C)c(C(=O)N2CCN(c3ccccc3)[C@H](CO)C2)c(C)c1NC1CCN(c2ccc(F)cc2C#N)CC1 [I-154, 5-fluoro-2-[4-({5-[(3S)-3-(hydroxy-methyl)-4-phenyl-piperazine-1-carbonyl]-2,4,6-trimethyl-pyridin-3-yl}amino)piperidin-1-yl] benzonitrile] | 1000 to 3000 | > 10000 |  | 
Cc1nc(C)c(C(=O)N2CCN(c3ccccc3)[C@H](CO)C2)c(C)c1NC1CCN(c2ccccn2)CC1 [I-155, [(2S)-1-phenyl-4-(2,4,6-trimethyl-5-{[1-(pyridin-2-yl)piperidin-4-yl]amino}pyridine-3-carbonyl)piperazin-2-yl]MeOH] | 1000 to 3000 | > 10000 |  | 
Cc1cc(C)c(C(=O)N2CCN(c3cccnn3)[C@H](CO)C2)c(C)c1NC1CCN(c2cccnn2)CC1 [I-160, [(2S)-1-(pyridazin-3-yl)-4-(2,4,6-trimethyl-3-{[1-(pyridazin-3-yl)piperidin-4-yl]amino}benzoyl)piperazin-2-yl]MeOH] | 1000 to 3000 | > 10000 |  | 
Cc1cc(C)c(C(=O)N2CCN(c3ccc(F)cn3)[C@H](CO)C2)c(C)c1NC1CCN(c2cccnn2)CC1 [I-161, [(2S)-1-(5-fluoropyridin-2-yl)-4-(2,4,6-trimethyl-3-{[1-(pyridazin-3-yl)piperidin-4-yl]amino}benzoyl)piperazin-2-yl]MeOH] | 10 to 1000 | > 10000 |  | 
Cc1nc(C)c(C(=O)N2CCN(c3ccccc3)[C@H](CO)C2)c(C)c1NC1CCN(c2ncccc2Cl)CC1 [I-165, [(2S)-4-(5-{[1-(3-chloropyridin-2-yl)piperidin-4-yl]amino}-2,4,6-trimethyl-pyridine-3-carbonyl)-1-phenyl-piperazin-2-yl]MeOH] |  |  | 10 to 1000 | > 10000
Cc1cc(C)c(C(=O)N2CCN(c3ccccc3S(N)(=O)=O)CC2)cc1N[C@H]1CCN(c2ccccc2C#N)C[C@H]1C [I-169, 2-(4-(5-(((3R,4S)-1-(2-cyanophenyl)-3-methylpiperidin-4-yl)amino)-2,4-dimethylbenzoyl)piperazin-1-yl)benzenesulfonamide] | 1000 to 3000 | > 10000 |  | 
Cc1cc(C)c(C(=O)N2CCN(c3ccccc3S(N)(=O)=O)CC2)cc1N[C@@H]1CCN(c2ccccc2C#N)C[C@H]1C [I-170, 2-(4-(5-(((3R,4R)-1-(2-cyanophenyl)-3-methylpiperidin-4-yl)amino)-2,4-dimethylbenzoyl)piperazin-1-yl)benzenesulfonamide] | 10 to 1000 | > 10000 |  | 
Cc1cc(C(F)(F)F)c(NC2CCN(c3ccccc3C#N)CC2)cc1C(=O)N1CCN(c2cccnc2S(N)(=O)=O)CC1 [I-172, 3-(4-(5-((1-(2-cyanophenyl)piperidin-4-yl)amino)-2-methyl-4-(trifluoromethyl)benzoyl)piperazin-1-yl)pyridine-2-sulfonamide] | 3000 to 5000 | > 10000 |  | 
Cc1cc(C)c(C(=O)N2CCN(c3c(F)cc(F)cc3S(N)(=O)=O)CC2)cc1NC1CCN(c2ccccc2C#N)CC1 [I-174, 2-(4-(5-((1-(2-cyanophenyl)piperidin-4-yl)amino)-2,4-dimethylbenzoyl)piperazin-1-yl)-3,5-difluorobenzenesulfonamide] | 10 to 1000 | > 10000 |  | 
Cc1cc(C)c(C(=O)N2CCN(c3cccnc3[S@](C)(=N)=O)CC2)c(C)c1NC1CCN(c2ncccc2Cl)CC1 [I-175, (R)-(3-(4-(3-((1-(3-chloropyridin-2-yl)piperidin-4-yl)amino)-2,4,6-trimethylbenzoyl)piperazin-1-yl)pyridin-2-yl)(imino)(methyl)-λ^6-sulfanone Trifluoroacetate Salt] | 10 to 1000 | > 10000 |  | 
Cc1cc(C)c(C(=O)N2CCN(c3nnco3)[C@H](CO)C2)cc1NC1CCN(c2ccccc2C#N)CC1 [I-177, (S)-2-(4-((5-(3-(hydroxymethyl)-4-(1,3,4-oxadiazol-2-yl)piperazine-1-carbonyl)-2,4-dimethylphenyl)amino)piperidin-1-yl)benzonitrile] | 1000 to 3000 | > 10000 |  | 
Cc1cc(C)c(C(=O)N2CCN(c3ncccc3S(N)(=O)=O)CC2)c(C)c1N[C@H]1CCN(c2ccccc2C#N)C[C@H]1C [I-178, 2-(4-(3-(((3R,4S)-1-(2-cyanophenyl)-3-methylpiperidin-4-yl)amino)-2,4,6-trimethylbenzoyl)piperazin-1-yl)pyridine-3-sulfonamide] | 10 to 1000 | > 10000 |  | 
Cc1cc(C)c(C(=O)N2CCN(c3ncccc3S(N)(=O)=O)CC2)c(C)c1N[C@@H]1CCN(c2ccccc2C#N)C[C@@H]1C [I-179, 2-(4-(3-(((3S,4R)-1-(2-cyanophenyl)-3-methylpiperidin-4-yl)amino)-2,4,6-trimethylbenzoyl)piperazin-1-yl)pyridine-3-sulfonamide] | 10 to 1000 | > 10000 |  | 
Cc1cc(C)c(C(=O)N2CCN(c3ncccc3S(N)(=O)=O)CC2)c(C)c1N[C@@H]1CCN(c2ccccc2C#N)C[C@H]1C [I-180, 2-(4-(3-(((3R,4R)-1-(2-cyanophenyl)-3-methylpiperidin-4-yl)amino)-2,4,6-trimethylbenzoyl)piperazin-1-yl)pyridine-3-sulfonamide] | 10 to 1000 | > 10000 |  | 

Second part, led by results:

IC50 ([1]; Homo sapiens, MCF7, 2 h) [nM] | IC50 [2, 3] [nM] | SMILES | IC50 ([1]; read-out: pS6K1 in MCF7: IC50) [nM] | IC50 ([2]; 2 hours compound incubation, read-out: pAKT in MCF7: IC50) [nM]
10 to 1000 | > 10000 | Cc1cc(C)c(C(=O)N2CCN(c3ccccn3)[C@H](CO)C2)c(C)c1NC1CCN(c2ccc(F)cn2)CC1 [I-147, [(2S)-4-(3-{[1-(5-Fluoropyridin-2-yl)piperidin-4-yl]amino}-2,4,6-trimethylbenzoyl)-1-(pyridin-2-yl)piperazin-2-yl]methanol] |  | 
10 to 1000 | > 10000 | Cc1cc(C)c(C(=O)N2CCN(c3ccc(F)cn3)[C@H](CO)C2)c(C)c1NC1CCN(c2cnccn2)CC1 [I-148, [(3S)-4-(5-Fluoro-2-pyridyl)-3-(hydroxymethyl)piperazin-1-yl]-[2,4,6-trimethyl-3-[(1-pyrazin-2-yl-4-piperidyl)amino]phenyl]methanone] |  | 
10 to 1000 | > 10000 | Cc1cc(C)c(C(=O)N2CCN(c3ccccn3)[C@H](CO)C2)c(C)c1NC1CCN(c2cnccn2)CC1 [I-149, [(2S)-1-(pyridin-2-yl)-4-(2,4,6-trimethyl-3-{[1-(pyrazin-2-yl)piperidin-4-yl]amino}benzoyl)piperazin-2-yl]MeOH] |  | 
10 to 1000 | > 10000 | Cc1cc(C)c(C(=O)N2CCN(c3ccccc3)[C@H](C(N)=O)C2)c(C)c1NC1CCN(c2cnccn2)CC1 [I-150, (2S)-1-phenyl-4-(2,4,6-trimethyl-3-{[1-(pyrazin-2-yl)piperidin-4-yl]amino}benzoyl) piperazine-2-carboxamide] |  | 
> 10000 | > 10000 | Cc1cc(C)c(C(=O)N2CCN(c3ccccc3)[C@@H](C(N)=O)C2)c(C)c1NC1CCN(c2cnccn2)CC1 [I-152, (2R)-1-phenyl-4-(2,4,6-trimethyl-3-{[1-(pyrazin-2-yl)piperidin-4-yl]amino}benzoyl) piperazine-2-carboxamide] |  | 
10 to 1000 | > 10000 | Cc1cc(C)c(C(=O)N2CCN(c3ccccn3)[C@H](CO)C2)c(C)c1NC1CCN(c2ccccn2)CC1 [I-156, [(2S)-1-(pyridin-2-yl)-4-(2,4,6-trimethyl-3-{[1-(pyridin-2-yl)piperidin-4-yl]amino}benzoyl)piperazin-2-yl]MeOH] |  | 
10 to 1000 | > 10000 | Cc1cc(C)c(C(=O)N2CCN(c3cccnn3)[C@H](CO)C2)c(C)c1NC1CCN(c2ccccn2)CC1 [I-157, [(2S)-1-(pyridazin-3-yl)-4-(2,4,6-trimethyl-3-{[1-(pyridin-2-yl)piperidin-4-yl]amino}benzoyl)piperazin-2-yl]MeOH] |  | 
10 to 1000 | > 10000 | Cc1cc(C)c(C(=O)N2CCN(c3ccccc3)[C@H](CO)C2)c(C)c1NC1CCN(c2cccnn2)CC1 [I-158, [(2S)-1-phenyl-4-(2,4,6-trimethyl-3-{[1-(pyridazin-3-yl)piperidin-4-yl]amino}benzoyl)piperazin-2-yl]MeOH] |  | 
10 to 1000 | > 10000 | Cc1cc(C)c(C(=O)N2CCN(c3ccc(F)cc3)C(C(N)=O)C2)c(C)c1NC1CCN(c2cccnn2)CC1 (stereo not drawn) [I-162, 1-(4-fluorophenyl)-4-(2,4,6-trimethyl-3-{[1-(pyridazin-3-yl)piperidin-4-yl]amino}benzoyl) piperazine-2-carboxamide] |  | 
10 to 1000 | > 10000 | Cc1cc(C)c(C(=O)N2CCN(c3ccccc3)[C@H](C(N)=O)C2)c(C)c1NC1CCN(c2cccnn2)CC1 [I-164, (2S)-1-Phenyl-4-(2,4,6-trimethyl-3-{[1-(pyridazin-3-yl)piperidin-4-yl]amino}benzoyl)piperazine-2-carboxamide] |  | 

— patent US10844013B2, “Phenyl amino piperidine mTORC inhibitors and uses thereof” (Navitor Pharmaceuticals, Inc., priority 2016, dated 2020)
